From ChEMBL document CHEMBL3864160, “Discovery of fluorobenzimidazole HCV NS5A inhibitors” (Bioorg Med Chem Lett, 2016)

What was measured:
[1] = Half life in Sprague-Dawley rat at 3 mg/kg, iv administered as bolus dose after 0.1 to 24 hrs; assay type: ADME, organism-based; settings: in vivo
[2] = Inhibition of Hepatitis C virus genotype 1b Con1 replicon NS5A transfected in human HuH7 cells assessed as decrease in replication of viral replicon in presence of 40% human plasma after 4 days by luciferase reporter gene assay; assay type: cell-based, Hepatitis C virus (isolate Con1); settings: Huh-7, Plasma, 96 h
[3] = Inhibition of Hepatitis C virus genotype 2a replicon NS5A transfected in human HuH7 cells assessed as decrease in replication of viral replicon after 4 days by luciferase reporter gene assay; assay type: cell-based, Hepatitis C virus subtype 2a; settings: Huh-7, 96 h
[4] = Inhibition of Hepatitis C virus genotype 1a H77 replicon NS5A transfected in human HuH7 cells assessed as decrease in replication of viral replicon in presence of 40% human plasma after 4 days by luciferase reporter gene assay; assay type: cell-based, Hepatitis C virus (isolate H77); settings: Huh-7, Plasma, 96 h
[5] = AUC in CD1 mouse at 5 mg/kg, po after 0.25 to 24 hrs; assay type: ADME, organism-based; parameters: time 0.25-24 hr, dose 5 mg/kg, route oral; settings: in vivo
[6] = test system: Hepatitis C virus (isolate H77); experiment: Resistance ratio of EC50 for Hepatitis C virus genotype 1a H77 replicon NS5A Q30R mutant to EC50 for Hepatitis C virus genotype 1a H77 replicon NS5A
[7] = Cmax in CD1 mouse at 5 mg/kg, po after 0.25 to 24 hrs; assay type: ADME, organism-based; parameters: dose 5 mg/kg, route oral; settings: in vivo
[8] = AUC in Sprague-Dawley rat at 3 mg/kg, po administered via gavage after 0.25 to 24 hrs; assay type: ADME, organism-based; parameters: time upper 24 hr, dose 3 mg/kg, time lower 0.25 hr, route oral; settings: in vivo
[9] = Inhibition of Hepatitis C virus genotype 1b Con1 replicon NS5A transfected in human HuH7 cells assessed as decrease in replication of viral replicon after 4 days by luciferase reporter gene assay; assay type: cell-based, Hepatitis C virus (isolate Con1); settings: Huh-7, 96 h
[10] = Cmax in Sprague-Dawley rat at 3 mg/kg, po administered via gavage after 0.25 to 24 hrs; assay type: ADME, organism-based; parameters: dose 3 mg/kg, route oral; settings: in vivo
[11] = Plasma clearance in CD1 mouse at 5 mg/kg, iv after 0.1 to 24 hrs; assay type: ADME, organism-based
[12] = test system: Hepatitis C virus (isolate H77); experiment: Ratio of EC50 for Hepatitis C virus genotype 1a H77 replicon NS5A in presence of 40% human plasma to EC50 for Hepatitis C virus genotype 1a H77 replicon NS5A in absence of 40% human plasma
[13] = test system: Hepatitis C virus (isolate H77); experiment: Resistance ratio of EC50 for Hepatitis C virus genotype 1a H77 replicon NS5A Y93C mutant to EC50 for Hepatitis C virus genotype 1a H77 replicon NS5A
[14] = Half life in CD1 mouse at 5 mg/kg, iv after 0.1 to 24 hrs; assay type: ADME, organism-based; settings: in vivo
[15] = test system: Hepatitis C virus (isolate H77); experiment: Resistance ratio of EC50 for Hepatitis C virus genotype 1a H77 replicon NS5A Y93H mutant to EC50 for Hepatitis C virus genotype 1a H77 replicon NS5A
[16] = Oral bioavailability in CD1 mouse at 5 mg/kg after 0.25 to 24 hrs; assay type: ADME, organism-based; settings: in vivo
[17] = Inhibition of Hepatitis C virus genotype 1a H77 replicon NS5A Q30R mutant transfected in human HuH7 cells assessed as decrease in replication of viral replicon after 4 days by luciferase reporter gene assay; assay type: cell-based, Hepatitis C virus (isolate H77); settings: Huh-7, 96 h
[18] = Inhibition of Hepatitis C virus genotype 1a H77 replicon NS5A transfected in human HuH7 cells assessed as decrease in replication of viral replicon after 4 days by luciferase reporter gene assay; assay type: cell-based, Hepatitis C virus (isolate H77); settings: Huh-7, 96 h
[19] = Inhibition of Hepatitis C virus genotype 2b replicon NS5A transfected in human HuH7 cells assessed as decrease in replication of viral replicon after 4 days by luciferase reporter gene assay; assay type: cell-based, Hepatitis C virus subtype 2b; settings: Huh-7, 96 h
[20] = Plasma clearance in Sprague-Dawley rat at 3 mg/kg, iv administered as bolus dose after 0.1 to 24 hrs; assay type: ADME, organism-based
[21] = Inhibition of Hepatitis C virus genotype 1a H77 replicon NS5A M28T mutant transfected in human HuH7 cells assessed as decrease in replication of viral replicon after 4 days by luciferase reporter gene assay; assay type: cell-based, Hepatitis C virus (isolate H77); settings: Huh-7, 96 h
[22] = test system: Hepatitis C virus (isolate H77); experiment: Resistance ratio of EC50 for Hepatitis C virus genotype 1a H77 replicon NS5A M28T mutant to EC50 for Hepatitis C virus genotype 1a H77 replicon NS5A
[23] = Half life in CD1 mouse at 5 mg/kg, po after 0.25 to 24 hrs; assay type: ADME, organism-based; settings: in vivo
[24] = Oral bioavailability in Sprague-Dawley rat at 3 mg/kg administered via gavage after 0.25 to 24 hrs; assay type: ADME, organism-based; settings: in vivo
[25] = Inhibition of Hepatitis C virus genotype 3a replicon NS5A transfected in human HuH7 cells assessed as decrease in replication of viral replicon after 4 days by luciferase reporter gene assay; assay type: cell-based, Hepatitis C virus subtype 3a; settings: Huh-7, 96 h
[26] = Inhibition of Hepatitis C virus genotype 4a replicon NS5A transfected in human HuH7 cells assessed as decrease in replication of viral replicon after 4 days by luciferase reporter gene assay; assay type: cell-based, Hepatitis C virus subtype 4a; settings: Huh-7, 96 h

COC(=O)N[C@H](C(=O)N1CCC[C@H]1c1nc2ccc([C@H]3CC[C@H](c4ccc5nc([C@@H]6CCCN6C(=O)[C@@H](NC(=O)OC)C(C)C)[nH]c5c4)N3c3ccc(C(C)(C)C)cc3)cc2[nH]1)C(C)C
half-life [1]: 4.1 h | EC50 [2]: 0.272 nM | EC50 [3]: 0.155 nM | EC50 [4]: 0.155 nM | AUC [5]: 1390 ng·h/mL | Ratio EC50 [6]: 14 | Cmax [7]: 270 ng/mL | AUC [8]: 560 ng·h/mL | EC50 [9]: 0.014 nM | Cmax [10]: 60 ng/mL | clearance [11]: 6.33 mL/min/kg | Ratio EC50 [12]: 10 to 20 | Ratio EC50 [13]: 8 | half-life [14]: 2 h | Ratio EC50 [15]: 239 | bioavailability [16]: 11% | EC50 [17]: 0.027 nM | EC50 [18]: 0.002 to 0.011 nM | EC50 [19]: 0.01 nM | clearance [20]: 17.7 mL/min/kg | EC50 [21]: 0.008 nM | Ratio EC50 [22]: 4 | half-life [23]: 2.6 h | bioavailability [24]: 20% | EC50 [25]: 0.014 nM | EC50 [26]: 0.006 nM
